Patent publication US12472177B2, “Bicyclic compounds and methods for their use in treating Pitt Hopkins syndrome” (NEUREN PHARMACEUTICALS LIMITED, priority 2019, dated 2025)

Key:
[1] = tested on: Tcf4^+/− mice; assay: Social interaction / sociability (time sniffing a novel mouse); format: in vivo; design: key to Sociability: Tukey’s Multiple Comparison Test Summary: **** = p < 0.00001; ns = not significant
Protocol: (§1) In vivo behavioral studies were conducted in Tcf4^+/− mutant and wildtype littermate control (WT) mice by Gen.DDI (Santiago, Chile). Littermate controls consist of the genotypes Tcf4^+/+. All Tcf4 mutant mice used were heterozygous for the Tcf4 mutation because homozygous mutations of Tcf4 result in embryonic to postnatal day 1 lethality. Ten mice per treatment group, 14 weeks of age, were used for behavioral experiments. Experiments were conducted in line with the requirements of the UK Animals (Scientific Procedures) Act, 1986. The mice were housed in plastic cages (35×30×12 cm), 5 in each and habituated to the animal facilities for at least a week before commencing the test. The room temperature (21° C.±2° C.), relative humidity (55%±5%), a 12-hour light-dark cycle (lights on 7 AM to 7 PM), and air exchange were automatically controlled. The animals had free access to commercial food pellets and water. Testing was performed during the light phase of the circadian cycle, with the order of testing being determined by the principle of conducting the most stressful tests last. Assays were designed to reproduce and expand on the original behavioral characterization of Tcf4^+/− mice. Tcf4^+/− and WT control mice were treated for 6 weeks prior to testing and tested 30 minutes following a dose of cG-2-AllylP, as described in Table 2 below.
Social recognition and social memory in humans are very important. People with PTHS show lower amounts of social recognition and memory compared with people without PTHS. […] Therefore, to determine if NNZ-2591 (cG-2-AllylP) could be effective in normalizing this condition, we carried out a series of studies in mice, in which we determined the amount of time that mice spent sniffing a novel mouse.
To carry out these studies, mice were evaluated by the amount of time spent sniffing a novel mouse upon repeated exposures, to induce familiarity, and reinstatement of high levels of sniffing when a novel stimulus animal is introduced. We measured the number of bouts of sniffing in each of the groups of animals. The time spent sniffing a novel mouse is shown on the vertical axis and the animals and treatments are shown on the horizontal axis.

[2] = tested on: Tcf4^+/− mice; assay: Open field (hypoactivity, distance travelled); format: in vivo, mouse; design: key to Open Field (Hypoactivity): Tukey’s Multiple Comparison Test Summary: **** = p < 0.00001; ns = not significant
Protocol: as §1
The Open Field (OF) test is a combined test that is used to determine anxiety/hyperactivity, and for habituation to a novel environment, one of the most elementary forms of learning, in which decreased exploration as a function of repeated exposure to the same environment is taken as an index of memory. This is normally studied in two sessions of exposure to the open field, a 10-min and a 24 hr habituation session.
The device used for this study is a grey PVC enclosed arena 50×30 cm divided into 10 cm squares. Mice are brought to the experimental room 5-20 min before testing. A mouse is placed into a corner square facing the corner and observed for 3 min. The number of squares entered (whole body) and rears (both front paws off the ground, but not as part of grooming) are counted. The latency to the first rear is also noted. The movement of the mouse around the field was recorded with a video tracking device for 300 s (vNT4.0, Viewpoint). The latency for the mouse to enter the brightest, central part of the field total time spent in this central region, and total activity (in terms of path length in centimetres), were recorded.
The open field (OF) test is a test used to characterize explorative behavior, anxiety, and/or hypo- and hyperactivity in animals habituated to daily handling under novel and familiar conditions. During exposure to the open field mice will habituate to the environment and thus explore less, decreasing the amount movement they show over time.
In the present experiment, we recorded movement and rearing during an initial exposure (T1), during a second exposure after 10 minutes (T2) and during a third exposure after 24 hours (T3). Failures to reduce locomotion or rearing at 10 minutes and 24 hours indicate deficits in short- and long-term memory, respectively.
To evaluate whether cG-2-AllylP is effective to treat the hypoactivity in PTHS, we carried out Open Field studies. Lower scores on measures of open field locomotion were detected in Tcf4^+/− as compared to WT littermates, across the 30-minute test session.
The relative distance travelled is shown on the vertical axis, and the animals and their treatments are shown on the horizontal axis. Wild type (WT) mice treated with vehicle alone (left column) were considered to travel 100%. […] The effect of NNZ-2591 (cG-2-AllylP) were statistically significant.

[3] = Tcf4^+/− + cG-2-AllylP (100 mg/kg) vs WT + cG-2-AllylP (200 mg/kg)
[4] = Tcf4^+/− + vehicle vs Tcf4^+/− + cG-2-AllylP (200 mg/kg)
[5] = Tcf4^+/− + vehicle vs WT + cG-2-AllylP (100 mg/kg)
[6] = WT + cG-2-AllylP (100 mg/kg) vs Tcf4^+/− + cG-2-AllylP (100 mg/kg)
[7] = WT + cG-2-AllylP (100 mg/kg) vs Tcf4^+/− + cG-2-AllylP (200 mg/kg)
[8] = WT + cG-2-AllylP (100 mg/kg) vs WT + cG-2-AllylP (200 mg/kg)
[9] = WT + cG-2-AllylP (200 mg/kg) vs Tcf4^+/− + cG-2-AllylP (200 mg/kg)
[10] = WT + vehicle vs Tcf4^+/− + cG-2-AllylP (100 mg/kg)
[11] = WT + vehicle vs Tcf4^+/− + cG-2-AllylP (200 mg/kg)
[12] = WT + vehicle vs WT + cG-2-AllylP (100 mg/kg)
[13] = WT mice, 100 mg/kg oral BID 6 weeks
[14] = WT mice, 200 mg/kg oral BID 6 weeks

## C=CC[C@]12CCCN1C(=O)CNC2=O [cG-2-AllylP, (8aS)-Allyl-hexahydropyrrolo[1,2-a]pyrazine-1,4-dione]
[1]; Tcf4^+/− + cG-02-AllylP (100 mg/kg) vs Tcf4^+/− + cG-2-AllylP (200 mg/kg)
  Sociability: Tukey’s Multiple Comparison Test Summary: ns
[1]; [3]
  Sociability: Tukey’s Multiple Comparison Test Summary: ns
[1]; Tcf4^+/− + vehicle vs Tcf4^+/− + cG-2-AllylP (100 mg/kg)
  Sociability: Tukey’s Multiple Comparison Test Summary: **** (**** = p < 0.0001)
[1]; [4]
  Sociability: Tukey’s Multiple Comparison Test Summary: **** (**** = p < 0.0001)
[1]; [5]
  Sociability: Tukey’s Multiple Comparison Test Summary: **** (**** = p < 0.0001)
[1]; Tcf4^+/− + vehicle vs WT + cG-2-AllylP (200 mg/kg)
  Sociability: Tukey’s Multiple Comparison Test Summary: **** (**** = p < 0.0001)
[1]; Tcf4^+/− mice, 100 mg/kg
  Behavior Normalized to WildType Levels: Sociability: ✓
[1]; Tcf4^+/− mice, 100 mg/kg oral BID 6 weeks, compared to Tcf4^+/− mice treated with vehicle only
  Time spent sniffing a novel mouse: substantial and statistically significant increases
[1]; Tcf4^+/− mice, 200 mg/kg
  Behavior Normalized to WildType Levels: Sociability: ✓
[1]; Tcf4^+/− mice, 200 mg/kg oral BID 6 weeks, compared to Tcf4^+/− mice treated with vehicle only
  Time spent sniffing a novel mouse: substantial and statistically significant increases
[1]; [6]
  Sociability: Tukey’s Multiple Comparison Test Summary: ns
[1]; [7]
  Sociability: Tukey’s Multiple Comparison Test Summary: ns
[1]; [8]
  Sociability: Tukey’s Multiple Comparison Test Summary: ns
[1]; [9]
  Sociability: Tukey’s Multiple Comparison Test Summary: ns
[1]; [10]
  Sociability: Tukey’s Multiple Comparison Test Summary: ns
[1]; [11]
  Sociability: Tukey’s Multiple Comparison Test Summary: ns
[1]; [12]
  Sociability: Tukey’s Multiple Comparison Test Summary: ns
[1]; [13]
  Time spent sniffing a novel mouse: nearly identical times
[1]; [14]
  Time spent sniffing a novel mouse: nearly identical times
[2]; Tcf4^+/− + cG-2-AllylP (100 mg/kg) vs Tcf4^+/− + cG-2-AllylP (200 mg/kg)
  Open Field (Hypoactivity): Tukey’s Multiple Comparison Test Summary: ns
[2]; [3]
  Open Field (Hypoactivity): Tukey’s Multiple Comparison Test Summary: ns
[2]; Tcf4^+/− + vehicle vs Tcf4^+/− + cG-2-AllylP 1 (200 mg/kg) [r21-22]
  Open Field (Hypoactivity): Tukey’s Multiple Comparison Test Summary: **** (**** = p < 0.00001)
[2]; Tcf4^+/− + vehicle vs Tcf4^+/− + cG-2-AllylP (100 mg/kg) [r23-24]
  Open Field (Hypoactivity): Tukey’s Multiple Comparison Test Summary: **** (**** = p < 0.00001)
[2]; [4]
  Open Field (Hypoactivity): Tukey’s Multiple Comparison Test Summary: **** (**** = p < 0.00001)
[2]; [5]
  Open Field (Hypoactivity): Tukey’s Multiple Comparison Test Summary: **** (**** = p < 0.00001)
[2]; Tcf4^+/− mice, 100 mg/kg
  Behavior Normalized to WildType Levels: Open Field: ✓
[2]; Tcf4^+/− mice, 100 mg/kg oral BID 6 weeks
  Relative distance travelled (mobility), open field: nearly identical mobility as did WT mice treated with vehicle alone
[2]; Tcf4^+/− mice, 200 mg/kg
  Behavior Normalized to WildType Levels: Open Field: ✓
[2]; Tcf4^+/− mice, 200 mg/kg oral BID 6 weeks
  Relative distance travelled (mobility), open field: normalized this mild to moderate hypoactivity
[2]; [6]
  Open Field (Hypoactivity): Tukey’s Multiple Comparison Test Summary: ns
[2]; [7]
  Open Field (Hypoactivity): Tukey’s Multiple Comparison Test Summary: ns
[2]; [8]
  Open Field (Hypoactivity): Tukey’s Multiple Comparison Test Summary: ns
[2]; [9]
  Open Field (Hypoactivity): Tukey’s Multiple Comparison Test Summary: ns
[2]; [10]
  Open Field (Hypoactivity): Tukey’s Multiple Comparison Test Summary: ns
[2]; [11]
  Open Field (Hypoactivity): Tukey’s Multiple Comparison Test Summary: ns
[2]; [12]
  Open Field (Hypoactivity): Tukey’s Multiple Comparison Test Summary: ns
[2]; WT + vehicle vs WT + cG-2-AllylP (200 mg/kg)
  Open Field (Hypoactivity): Tukey’s Multiple Comparison Test Summary: ns
[2]; [13]
  Relative distance travelled (mobility), open field: slightly higher mobility than WT mice treated with vehicle
[2]; [14]
  Relative distance travelled (mobility), open field: nearly the same mobility
